We go through twelve substances from publication PMC8858294, “Impact of distant peptide substrate residues on enzymatic activity of SlyD” (Cellular and Molecular Life Sciences: CMLS, 2022).

Ends that are not written are not given here.

The target of assay [1] is T1, SlyD^WT IF (chaperone) domain (Thermus thermophilus, UniProt Q5SLE7).
T1 sequence (Q5SLE7 70-117): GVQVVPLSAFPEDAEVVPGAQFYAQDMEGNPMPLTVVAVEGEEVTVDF
In words: biochemical. It is filed as binding. The method, then:
(§1) ITC was measured using MicroCal VP-ITC calorimeter (Malvern) and analysed with MicroCal ITC-ORIGIN Analysis Software. First 1 × 3 µl and then 42 × 6.5 µl of 1.2 mM peptides dissolved in 20 mM HEPES (pH 7.5) and 100 mM NaCl were injected every 240 s from the syringe into the cell containing 50 µM SlyD at 25 °C. The resulting isotherms were fitted with one binding site model in case of SlyDΔIF construct and with two binding site model in case of the wild-type SlyD.

The target in assay [2] is T2, SlyD^WT FKBP (PPIase) domain (Thermus thermophilus, UniProt Q5SLE7).
T2 sequence (Q5SLE7 1-149): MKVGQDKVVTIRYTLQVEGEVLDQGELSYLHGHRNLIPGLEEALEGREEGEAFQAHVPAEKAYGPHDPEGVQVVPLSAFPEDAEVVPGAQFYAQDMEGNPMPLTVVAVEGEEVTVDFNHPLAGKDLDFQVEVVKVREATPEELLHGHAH
As to the kind of experiment: biochemical. The assay is classed as binding. As to the method:
as §1

The target in assay [3] is T3, SlyDΔIF (Thermus thermophilus, UniProt Q5SLE7). In words: ITC, peptide binding to SlyDΔIF (one binding site model). To be noted: read-out: KD (SlyDΔIF), 1.2 mM peptide into 50 µM SlyD, 25 °C, 20 mM HEPES pH 7.5, 100 mM NaCl, ± error of fit. As to the method:
as §1

The test system of assay [4] is SlyD^WT FKBP (PPIase) domain. As to the kind of experiment: biochemical. It is filed as binding, Thermus thermophilus. To be noted: ITC, SlyD^WT and SlyDΔIF. As to the method:
as §1

The next assay relates to SlyD^WT. In words: Label-free 1H NMR lineshape prolyl isomerase activity assay with SlyD^WT. It is filed as biochemical, Thermus thermophilus. The conditions noted are these: for kcat/KM (SlyD^WT): 1H NMR lineshape analysis, 100 µM peptide, 0 to 6 µM enzyme, 25 °C, 20 mM HEPES, 100 mM NaCl, pH 7.5, linear regression of exchange rate vs enzyme concentration, technical triplicates, error one standard deviation. The method, then:
(§2) ^1H NMR spectra of 100 µM peptide samples in 20 mM HEPES, 100 mM NaCl, pH 7.5 were acquired on a Bruker Avance III NMR-spectrometer at 25 °C and different concentrations of enzyme (0 to 6 µM). Samples contained 10% (v/v) D2O and 0.5 mM TCEP. Spectra have been corrected by subtracting identically measured and processed spectra of enzyme only samples, in order to rule out any influence of signals from the enzymes. Spectra were processed using Topspin (Bruker, Inc) and analyzed in MATLAB (mathworks). […] The obtained relative line broadening of the cis and trans signals of methyl group I, is caused by chemical exchange between the two forms and depends on the population of the cis and trans forms, their chemical shift difference (which are both known from experiments without enzyme) and the apparent exchange rate which was derived from the fit. Errors in the fitted parameters were estimated using Monte-Carlo simulations; the reported errors correspond to one standard deviation.
(§3) Tetrapeptides terminally fused with fluorophores sensitive to proline isomerization have been routinely used to study the activity of peptidyl-prolyl cis–trans isomerases, such as SlyD [11]. […] Studying longer peptides usually requires 2D NMR spectroscopy, often in combination with ^13C labeling, in order to detect separate signals for the cis and trans state. […] This approach, which was initially developed for chemically modified tetrapeptides, relies only on the interaction of a leucine residue upstream of the proline (i − 1) and a phenylalanine residue downstream of the proline (i + 1). The different orientations of the leucine and phenylalanine residues in cis and trans proline conformations give rise to different signals for one of the leucine methyl groups (I), while the other methyl group (II) is mostly unaffected (Fig. 2A). At the same time, the impact of the proline cis/trans conformation on the leucine methyl groups is not dependent on the length of the peptide. The only requirement for the design of the peptide substrate is the absence of additional leucine, isoleucine or valine residues that could interfere with the NMR signals of interest. The linewidth of the signals is affected by the enzymatic turnover rate, which itself is dependent on the enzyme concentration (Fig. 2A). The enzymatic activity (kcat/KM) is then determined by the linear regression of the determined rate at various enzyme concentrations at a fixed substrate concentration below KM (Fig. 2B and SI Fig. 1).

Assay [5] concerns the target T3, SlyDΔIF. In words: Label-free 1H NMR lineshape prolyl isomerase activity assay with SlyDΔIF. The assay is classed as biochemical. The conditions noted are these: 1H NMR lineshape analysis, 100 µM peptide, 0 to 6 µM enzyme, 25 °C, 20 mM HEPES, 100 mM NaCl, pH 7.5; linear regression of exchange rate vs enzyme concentration; technical triplicates; error one standard deviation. As to the method:
as §2, §3

The Kd is the equilibrium constant for the complex coming apart. On to H-TRYWNAKMLPFAFMA-OH [G14M], for which the figures for the Kd (in assay [1]; in assay [2]; at SlyDΔIF [3]) were 0.1 ± 0.01 µM, 2.2 ± 0.1 µM and 8.3 ± 0.5 µM, respectively.

Turning to H-TRYWNAKMLPFAEGA-OH [F13E], the dissociation constant Kd is 1.15 ± 0.01 µM in assay [1], 10.4 ± 0.5 µM in assay [2] and 36.1 ± 0.8 µM on SlyDΔIF [3]. For the same substance, in assay [4], the “reduction in affinity compared to the psWT peptide” value is reported as “up to fivefold”. Moreover, the “kcat/KM (SlyD^WT)” value in the assay on SlyD^WT turned out to be 7e+06 ± 600000 M⁻¹ s⁻¹. Further, the “kcat/KM (SlyDΔIF)” value at SlyDΔIF [5] came to 100000 ± 100000 M⁻¹ s⁻¹.

TRYWNAKMLPFAFGA [psWT]: the values for the dissociation constant Kd (in assay [1]; in assay [2]; at SlyDΔIF [3]) were 0.22 ± 0.01 µM, 3.5 ± 0.1 µM and 15.6 ± 0.2 µM, respectively. Also, in the assay with SlyD^WT, the “kcat/KM (SlyD^WT)” value was 4.9e+06 ± 300000 M⁻¹ s⁻¹. Further, in the assay with SlyD^WT (15-residue peptide at 100 µM, chaperone domain occupied), the “increase of activity by the chaperone domain (factor, SlyD^WT vs SlyDΔIF)” value worked out at 2.2. Moreover, the “kcat/KM (SlyDΔIF)” value on SlyDΔIF [5] is 2.2e+06 ± 300000 M⁻¹ s⁻¹.

Regarding H-TRYKNAKMLPFAFGA-OH [W4K], the figures for the Kd (in assay [1]; in assay [2]; at SlyDΔIF [3]) were 0.21 ± 0.01 µM, 3.2 ± 0.3 µM and 12.6 ± 0.8 µM, respectively. Further, the “kcat/KM (SlyD^WT)” value in the assay with SlyD^WT stood at 2.2e+06 ± 300000 M⁻¹ s⁻¹. On SlyDΔIF [5], the “kcat/KM (SlyDΔIF)” value worked out at 3.5e+06 ± 700000 M⁻¹ s⁻¹.

In the case of TRYWNAKMLPFAAGA [F13A], the equilibrium dissociation constant (Kd) in assay [1] is 0.38 ± 0.02 µM; in assay [2], 6.4 ± 0.3 µM; at SlyDΔIF [3], 22.7 ± 0.6 µM. In the assay with SlyD^WT, the “kcat/KM (SlyD^WT)” value is 3.1e+06 ± 100000 M⁻¹ s⁻¹. The “kcat/KM (SlyDΔIF)” value on SlyDΔIF [5] was 400000 ± 100000 M⁻¹ s⁻¹.

Regarding H-TRYWNAKMLPFAKGA-OH [F13K], the Kd in assay [1] was found to be 0.11 ± 0.02 µM; in assay [2], 5.2 ± 0.2 µM; at SlyDΔIF [3], 20 ± 0.7 µM. Moreover, the “kcat/KM (SlyD^WT)” value with SlyD^WT turned out to be 3.4e+06 ± 100000 M⁻¹ s⁻¹. The “kcat/KM (SlyDΔIF)” value at SlyDΔIF [5] stood at 2.3e+06 ± 300000 M⁻¹ s⁻¹.

For the substance H-TRYENAKMLPFAFGA-OH [W4E], the Kd in assay [1] came to 0.86 ± 0.02 µM; in assay [2], 13.9 ± 0.9 µM. The “reduction in affinity compared to the psWT peptide” value in assay [4] was “up to fivefold”. The “kcat/KM (SlyD^WT)” value with SlyD^WT came to 4.4e+06 ± 200000 M⁻¹ s⁻¹. The “kcat/KM (SlyDΔIF)” value at SlyDΔIF [5] was determined as 900000 ± 200000 M⁻¹ s⁻¹.

In the case of “R2A: psWT peptide substrate with mutation R2A (TAYWNAKMLPFAFGA)”, in the assay on SlyD^WT, the “kcat/KM (SlyD^WT)” value stood at 5.1e+06 ± 300000 M⁻¹ s⁻¹. Further, in the assay with SlyDΔIF [5], the “kcat/KM (SlyDΔIF)” value is 1.3e+06 ± 200000 M⁻¹ s⁻¹.

For H-TRYWNAKMLPFAFGL-OH [A15L], the dissociation constant (Kd) in assay [1] was determined as 0.16 ± 0.02 µM; in assay [2] it was 4.1 ± 0.1 µM; on SlyDΔIF [3], 14.8 ± 0.2 µM.

TRYWNAKALPFAFGA [M8A]: the Kd in assay [1] amounted to 0.24 ± 0.01 µM; in assay [2], 6 ± 0.1 µM; on SlyDΔIF [3], 19.4 ± 1 µM. The “kcat/KM (SlyD^WT)” value in the assay with SlyD^WT stood at 7.7e+06 ± 900000 M⁻¹ s⁻¹. Further, the “kcat/KM (SlyDΔIF)” value at SlyDΔIF [5] was 3.1e+06 ± 100000 M⁻¹ s⁻¹.

On to TRAWNAKMLPFAFGA [Y3A], for which the results for the Kd (in assay [1]; in assay [2]; on SlyDΔIF [3]) were 0.72 ± 0.1 µM, 17.3 ± 1.3 µM and 51.5 ± 8.6 µM, respectively. Besides, the “kcat/KM (SlyD^WT)” value in the assay on SlyD^WT was determined as 3.9e+06 ± 400000 M⁻¹ s⁻¹. Further, the “kcat/KM (SlyDΔIF)” value on SlyDΔIF [5] is 2.5e+06 ± 300000 M⁻¹ s⁻¹.

For the substance TRYANAKMLPFAFGA [W4A], the Kd in assay [1] amounted to 0.75 ± 0.06 µM; in assay [2], 8.4 ± 0.4 µM. In addition, the “kcat/KM (SlyD^WT)” value in the assay with SlyD^WT is 2e+06 ± 200000 M⁻¹ s⁻¹. Moreover, the “kcat/KM (SlyDΔIF)” value on SlyDΔIF [5] came to 1.1e+06 ± 200000 M⁻¹ s⁻¹.
